Legend:
forestomachs of rats = conditions: Nera et al., Toxicology 32:197-213 (1984); cited from earlier work
[1] = antioxidant activity, peroxide value of lard; conditions: 0.01% w/w, 60° C., FIG. 2
Method: (§1) Aliquots of corn oil stripped of endogenous antioxidants were mixed with either 1,2,3,4-tetrahydroxybenzene (OH-Bz), or with a known antioxidant chosen from propyl gallate (PG), tert-butylhydroquinone (TBHQ), and α-tocopherol (Toc). Each antioxidant was at a concentration of 0.01% w/w (i.e., 100 ppm). The mixtures (as well as controls) were maintained at 60° C. Samples of each mixture were removed at a series of time points over a period of 28 days, and the peroxide value of each sample was measured using standard laboratory techniques (FIG. 1). Similarly, aliquots of lard were mixed with either 1,2,3,4-tetrahydroxybenzene (OH-Bz), or with a known antioxidant chosen from propyl gallate (PG), tert-butylhydroquinone (TBHQ), and α-tocopherol (Toc). Each antioxidant was at a concentration of 0.01% w/w. The mixtures (as well as controls) were maintained at 60° C. Samples of each mixture were removed at a series of time points over a period of 26 days, and the peroxide value of each sample was measured using standard laboratory techniques (FIG. 2).

Salmonella cocktail = assay: liquid culture growth inhibition assay; type: cell-based
Method: (§2) For these experiments, three strains of Listeria monocytogenes (CWD 95, CWD 246 and CWD 201), three strains of Escherichia coli O157:H7 (AR, AD 305, and AD 317), Salmonella typhimurium (clinical DT 104 isolate H3380), Salmonella enteritidis (clinical isolate H3527, phage type 13A) and Salmonella heidelberg (clinical isolate F5038BG1, Maryland outbreak) were obtained. All strains were stored at −70° C., in Trypticase soy broth containing 10% (v/v) glycerol. Thawed strains were subcultured three times in Trypticase soy broth containing 0.6% (w/v) yeast extract (TSB-YE) (Difco Laboratories, Detroit, Mich.) at 35° C., 18 to 24 h before use.
(§3) For these experiments, sub-cultured bacteria (10^8 cfu Salmonella; 10^9 cfu Listeria monocytogenes and 10^9 cfu E. coli) were each added to culture tubes containing TSB-YE. Three strains of each bacterial species were used, and 1,2,3,4-tetrahydroxybenzene was added to concentrations ranging from 1.4 mM to 14 mM. Three culture tubes were used for each 1,2,3,4-tetrahydroxybenzene concentration. The samples were incubated at 35° C. and observation of growth was recorded at 24 and 48 hrs. Results were reported as the number or tubes positive or negative for growth at 24 h and 48 h.

Salmonella heidelberg = assay: liquid culture growth inhibition assay; type: cell-based; conditions: all strains tested, 24 and 48 hrs
Method: as §2, §3

Salmonella enteritidis = assay: liquid culture growth inhibition assay; type: cell-based; conditions: all strains tested, 24 and 48 hrs
Method: as §2, §3

Salmonella typhimurium [2] = assay: liquid culture growth inhibition assay; type: cell-based; conditions: all strains tested, 24 and 48 hrs
Method: as §2, §3

Listeria monocytogenes [3] = assay: liquid culture growth inhibition assay; type: cell-based; conditions: all strains tested, 24 and 48 hrs
Method: as §2, §3

[4] = antioxidant activity, peroxide value of corn oil; conditions: 0.01% w/w (100 ppm), 60° C., FIG. 1
Method: as §1

E. coli O157:H7 = assay: liquid culture growth inhibition assay; type: cell-based, Escherichia coli O157:H7; conditions: all strains tested, 24 and 48 hrs
Method: as §2, §3

Escherichia coli = assay: inhibition zone experiment (pour plate, filter disc); type: cell-based; conditions: 24 hrs, FIG. 3
Method: as §2
(§4) To test antimicrobial activity of 1,2,3,4-tetrahydroxybenzene, a pour plate technique was used in which 200 μl samples of subcultured bacteria (either […] colony forming units (CFU)/ml of Salmonella, 109 CFU/ml of L. monocytogenes or 10^9 CFU/ml of E. coli) were transferred to a Petri dish (100 mm×15 mm) to which 20 ml of Trypticase soy agar containing 0.6% (w/v) yeast extract (TSA-YE) was added. The contents of each Petri dish was then mixed by gently forming figure eights with the dish against the bench top. Separately, solutions of 1,2,3,4-tetrahydroxybenzene were prepared at the following concentrations: 1.4 M, 0.14 M, 0.014 M, 0.0014 M, and 0.00014 M. 16 mm filter discs comprising 1,2,3,4-tetrahydroxybenzene each then received 50 μl of a solution comprising one concentration of 1,2,3,4-tetrahydroxybenzene. A single 16 mm disc comprising 50 μl of one concentration of 1,2,3,4-tetrahydroxybenzene was then placed aseptically in the center of each Petri dish. The Petri dishes were then incubated at 35° C. Zones of growth inhibition were determined by observation at 24 hrs. All tests were run in triplicate and averaged.

Salmonella typhimurium [5] = assay: as above; type: cell-based; conditions: 24 hrs, FIG. 3
Method: as §2, §4

Listeria monocytogenes [6] = assay: as above; type: cell-based; conditions: 24 hrs, FIG. 3
Method: as §2, §4

[7] = 50 μl at 1.4 M or 0.14 M on 16 mm filter disc
[8] = concentrations lower than 0.14 M, 16 mm filter disc

## COc1ccc(O)c(C(C)(C)C)c1 [BHA, butylated hydroxyanisole]
Forestomachs of rats
  carcinogenicity: implicated as a carcinogen promoting formation of tumors in the forestomachs of rats

## Oc1ccc(O)c(O)c1O [THB, 1,2,3,4-tetrahydroxybenzene]
[1]; 26 days
  antioxidant activity (peroxide value): highly effective antioxidant, equal or superior to PG, TBHQ, PG, and α-tocopherol
[1]
  period over which antioxidant activity is maintained: at least 26 days
Salmonella cocktail
  concentration at which complete inhibition occurred: ≥ 5.6 mM
Salmonella heidelberg
  concentration at which complete inhibition occurred: ≥ 5.6 mM
Salmonella enteritidis
  concentration at which complete inhibition occurred: ≥ 5.6 mM
Salmonella typhimurium [2]
  concentration at which complete inhibition occurred: ≥ 5.6 mM
Listeria monocytogenes [3]
  concentration at which complete inhibition occurred: ≥ 5.6 mM
[4]; 28 days
  antioxidant activity (peroxide value): highly effective antioxidant, equal or superior to PG, TBHQ, PG, and α-tocopherol
[4]
  period over which antioxidant activity is maintained: at least 26 days
E. coli O157:H7
  concentration at which complete inhibition occurred: ≥ 5.6 mM
Escherichia coli; [7]
  zones of growth inhibition: led to appearance of zones of inhibition
Escherichia coli; [8]
  zones of growth inhibition: did not form zones of inhibition greater than the diameter of the filter
Salmonella typhimurium [5]; [7]
  zones of growth inhibition: led to appearance of zones of inhibition
Salmonella typhimurium [5]; [8]
  zones of growth inhibition: did not form zones of inhibition greater than the diameter of the filter
Listeria monocytogenes [6]; [7]
  zones of growth inhibition: led to appearance of zones of inhibition
Listeria monocytogenes [6]; [8]
  zones of growth inhibition: did not form zones of inhibition greater than the diameter of the filter
